Data published in US6514997B2, “Antipicornaviral compounds and compositions, their pharmaceutical uses, and materials for their synthesis” (Agouron Pharmaceuticals, Inc., priority 1999, dated 2003).
Like-named read-outs stand apart in the source and are kept apart here. One block for each compound: values may come before it.

Columns and labels:
[1] = molecular target: T1, Recombinant rhinovirus 3C protease, serotype 14 (Human rhinovirus 14, UniProt P03303); assay: Inhibition of rhinovirus 3C protease (FRET assay, kobs/[I]), serotype 14; assay type: biochemical; conditions: HRV-14; for kinact/KI: pH 7.6, read-out: kobs/[I] (3C protease inhibition activity)
T1 construct: Recombinant rhinovirus 3C proteases; made in house
Experimental: Inhibition of Rhinovirus 3C Protease:
Stock solutions (50 mM, in DMSO) of various compounds were prepared; dilutions were in the same solvent. Recombinant rhinovirus 3C proteases (see Birch et al., “Purification of recombinant human rhinovirus 14 3C protease expressed in Escherichia coli,” Protein Expr. Pur. (1995), vol. 6(5), 609-618) from serotypes 14, 16, and 2 were prepared by the following standard chromatographic procedures: (1) ion exchange using Q Sepharose Fast Flow from Pharmacia; (2) affinity chromatography using Affi-Gel Blue from Biorad; and (3) sizing using Sephadex G-100 from Pharmacia. Each assay sample contained 2% DMSO, 50 mM tris pH 7.6, 1 mM EDTA, a test compound at the indicated concentration, approximately 1 μM substrate, and 50-100 nM protease. The kobs/I values were obtained from reactions initiated by addition of enzyme rather than substrate. RVP activity was measured in the fluorescence resonance energy transfer assay. The substrate was (N-terminal) DABCYL-([…]-EDANS. In the uncleaved peptide, the EDANS fluorescence was quenched by the proximal DABCYL moiety. When the peptide was cleaved, the quenching was relieved, and activity was measured as an increase in fluorescence signal. The tabulated data in the column designated kobs/[I] were measured from progress curves in enzyme start experiments.

[2] = tested on: HRV-14; assay: Antirhinoviral H1-HeLa cell culture assay (XTT cell protection, EC50), HRV-14; assay type: cell-based, human rhinovirus (HRV) serotype-14 in H1-HeLa cells
Experimental: (§1) Antirhinoviral H1-HeLa Cell Culture Assay:
(§2) In this cell protection assay, the ability of compounds to protect cells against HRV infection was measured by the XTT dye reduction method, which is described in Weislow et al., J. Natl. Cancer Inst. […] H1-HeLa cells were infected with HRV-14 at a multiplicity of infection (m.o.i.) of 0.13 (virus particles/cell) or mock-infected with medium only. Infected or mock-infected cells were resuspended at 8×10^5 cells per mL, and incubated with appropriate concentrations of the compounds to be tested. Two days later, XTT/PMS was added to test plates and the amount of formazan produced was quantified spectrophotometrically at 450/650 nm. […] The therapeutic index (TI) was calculated by dividing the CC50 value by the EC50 value.
(§3) All strains of human rhinovirus (HRV) for use in this assay were purchased from American Type Culture Collection (ATCC), except for HRV serotype-14 (produced from the infectious cDNA clone constructed by Dr. Robert Rueckert, Institute for Molecular Virology, University of Wisconsin, Madison, Wis.). HRV stocks were propagated and viral assays were performed in H1-HeLa cells (ATCC). Cells were grown in minimal essential medium with 10% fetal bovine serum, available from Life Technologies (Gaithersburg, Md.).

[3] = Cytotoxicity (CC50) in mock-infected H1-HeLa cells, XTT dye reduction; assay type: cell-based, human; conditions: human, H1-HeLa cells, mock-infected; line of HRV-14
Experimental: as §2, §3
(§4) Coxsackievirus types A-21 (CAV-21) and B3 (CVB3) were purchased from American Type Culture Collection (ATCC, Rockville, Md.). Virus stocks were propagated and antiviral assays were performed in H1-HeLa cells (ATCC). Cells were grown in minimal essential medium with 10% fetal bovine serum (Life Technologies, Gaithersburg, Md.). The ability of the compounds of this invention to protect cells against either CAV-21 or CVB3 infection was measured by the XTT dye reduction method. This method is described in Weislow et al., J. Natl. Cancer Inst. […] H1-HeLa cells were infected with CAV-21 or CVB3 at a multiplicity of infection (m.o.i.) of 0.025 or 0.075, respectively, or mock-infected with medium only. H1-HeLa cells were plated at 4×10^4 cells per well in a 96-well plate and incubated with appropriate concentrations of the test compound. One day (CVB3) or two days (CAV-21) later, XTT/PMS was added to test plates and the amount of formazan produced was quantified spectrophotometrically at 450/650 nm. […] The therapeutic index (TI) was calculated by dividing the CC50 by the EC50.

[4] = tested on: strains of human rhinovirus (HRV); assay: Antirhinoviral H1-HeLa cell culture assay (XTT cell protection, EC50), other HRV strains; assay type: cell-based, human rhinovirus in H1-HeLa cells; conditions: read-out: EC50
Experimental: as §1
In this cell protection assay, the ability of compounds to protect cells against HRV infection was measured by the XTT dye reduction method, which is described in Weislow et al., J. Natl. Cancer Inst. (1989), vol. 81, 577-586. H1-HeLa cells were infected with HRV-14 at a multiplicity of infection (m.o.i.) of 0.13 (virus particles/cell) or mock-infected with medium only. Infected or mock-infected cells were resuspended at 8×10^5 cells per mL, and incubated with appropriate concentrations of the compounds to be tested. Two days later, XTT/PMS was added to test plates and the amount of formazan produced was quantified spectrophotometrically at 450/650 nm. […] The therapeutic index (TI) was calculated by dividing the CC50 value by the EC50 value.
as §3

[5] = tested on: H1-HeLa cells; assay: Cytotoxicity (CC50) in mock-infected H1-HeLa cells, XTT dye reduction; assay type: cell-based, human
Experimental: as §2, §3, §4

[6] = Rhinovirus B, HRV14, H1-HeLa, HRV-14, read-out: EC50

T1 sequence (P03303 1538-1719): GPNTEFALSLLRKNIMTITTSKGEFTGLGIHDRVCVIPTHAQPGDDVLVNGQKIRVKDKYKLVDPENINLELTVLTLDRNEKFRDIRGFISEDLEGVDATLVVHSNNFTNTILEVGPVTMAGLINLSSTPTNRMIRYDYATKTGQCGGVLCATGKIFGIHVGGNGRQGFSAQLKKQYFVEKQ

Structure (SMILES): CC[C@@H](C(=O)N[C@H](/C=C/C(=O)O)C[C@@H]1CCNC1=O)n1cccc(NC(=O)c2cc(C)on2)c1=O [Compound 35, trans-(2S,3″″S,4S)-4-(2′-{3″-[(5′″-Methylisoxazole-3′″-carbonyl)amino]-2″-oxo-2″H-pyridin-1″-yl}butyrylamino)-5-(2″″-oxopyrrolidin-3″″-yl)pent-2-enoic Acid]
- kinact/KI [1]: 220 M⁻¹ s⁻¹
- EC50 ([2]; Rhinovirus B, HRV14, H1-HeLa): > 10000 nM
- CC50 at 2 days [3]: > 10000 nM

Structure (SMILES): CCOC(=O)/C=C/[C@H](C[C@@H]1CCNC1=O)NC(=O)Cn1cccc(NC(=O)c2cc(C)on2)c1=O [Compound 22, trans-(4S,3″″S)-4-(2′-{3″-[(5′″-Methylisoxazole-3′″-carbonyl)amino]-2″-oxo-2″H-pyridin-1″-yl}acetylamino)-5-(2″″-oxopyrrilidin-3″″-yl)pent-2-enoic Acid Ethyl Ester]
- kinact/KI [1]: 18500 M⁻¹ s⁻¹
- EC50 ([2]; Rhinovirus B, HRV14, H1-HeLa): 1000 nM
- CC50 at 2 days [3]: > 10000 nM

Structure (SMILES): CCOC(=O)/C=C/[C@H](CCC(N)=O)NC(=O)[C@H](Cc1ccccc1)n1ccc(C)c(NC(=O)c2cc(C)on2)c1=O [Compound 18, trans-(2′S,4S)-6-Carbamoyl-4-(2′-{4″-methyl-3″-[(5′″-methylisoxazole-3′″-carbonyl)amino]-2″-oxo-2″H-pyridin-1″-yl}-3′-phenylpropionylamino)hex-2-enoic Acid Ethyl Ester]
- kinact/KI [1]: 116000 M⁻¹ s⁻¹
- EC50 [2, 6]: 125 nM
- CC50 at 2 days [3]: > 10000 nM

Structure (SMILES): CCOC(=O)/C=C/[C@H](C[C@@H]1CCNC1=O)NC(=O)[C@H](Cc1ccccc1)n1ccc2cc[nH]c2c1=O [Compound 3]
- kinact/KI [1]: 2900 M⁻¹ s⁻¹
- EC50 ([2]; Rhinovirus B, HRV14, H1-HeLa): 1270 nM
- CC50 at 2 days [3]: > 10000 nM

Structure (SMILES): C#CC[C@@H](C(=O)N[C@H](/C=C/C(=O)OCC(C)(C)C)C[C@@H]1CCNC1=O)n1cccc(NC(=O)c2cc(C)on2)c1=O (relative stereo) [Compound 32, trans-(2′S,3″″S,4S)-4-(2′-{3″-[(5′″-Methylisoxazole-3′″-carbonyl)amino]-2″-oxo-2″H-pyridin-1″-yl}-pent-4′-ynoylamino)-5-(2″″-oxopyrrolidin-3″″-yl)pent-2-enoic acid 2,2-Dimethylpropyl Ester]
- kobs/[I] (3C protease inhibition activity) [1]: 127,500 M^−1s^−1
- EC50 ([2]; HRV-14, read-out: EC50): 126 nM
- EC50 ([4]; HRV-1A): 179 nM
- EC50 ([4]; HRV-2): 105 nM
- EC50 ([4]; HRV-3): 59 nM
- EC50 ([4]; HRV-9): 500 nM
- EC50 ([4]; HRV-10): 156 nM
- EC50 ([4]; HRV-16): 184 nM
- EC50 ([4]; HRV-25): 547 nM
- EC50 ([4]; HRV-39): 410 nM
- EC50 ([4]; HRV-87): 33 nM
- CC50 ([5]; line of HRV-1A): > 10000 nM
- CC50 ([5]; line of HRV-2): > 10000 nM
- CC50 ([5]; line of HRV-3): > 10000 nM
- CC50 ([5]; line of HRV-9): > 10000 nM
- CC50 ([5]; line of HRV-10): > 10000 nM
- CC50 ([5]; line of HRV-14): > 10000 nM
- CC50 ([5]; line of HRV-16): > 10000 nM
- CC50 ([5]; line of HRV-25): > 10000 nM
- CC50 ([5]; line of HRV-39): > 10000 nM
- CC50 ([5]; line of HRV-87): > 10000 nM

Continued, in another order:

- kinact/KI [1]: 74000 M⁻¹ s⁻¹
- EC50 [2, 6]: 325 nM
Structure (SMILES): O=C1OCC/C1=C\[C@H](C[C@@H]1CCNC1=O)NC(=O)[C@H](Cc1ccc(F)cc1)n1cccc(NC(=O)C2CCCC2)c1=O [Compound 16, trans-(2′″S,2′″S,3′″″S)-Cyclopentanecarboxylic acid(1-{2′-(4″-fluorophenyl)-1′-[2′-(2″″-oxo-dihydrofuran-3″″-ylidene)-1-(2′″″-oxopyrrolidin-3′″″-ylmethyl)ethylcarbamoyl]ethyl}-2-oxo-1,2-dihydropyridin-3-yl)amide]
- CC50 at 2 days [3]: > 10000 nM

- kinact/KI [1]: 25800 M⁻¹ s⁻¹
- EC50 [2, 6]: 75 nM
Structure (SMILES): CCOC(=O)/C=C/[C@H](CCC(N)=O)NC(=O)[C@H](Cc1ccccc1)n1ccc(C)c(NC(=O)OCc2ccccc2)c1=O [Compound 12, trans-(2′S,4S)-4-[2′-(3″-Benzyloxycarbonylamino-4″-methyl-2″-oxo-2″H-pyridin-1″-yl)-3′-phenylpropionylamino]-6-carbamoylhex-2-enoic Acid Ethyl Ester]
- CC50 at 2 days [3]: > 10000 nM

- kinact/KI [1]: 7660 M⁻¹ s⁻¹
- EC50 [2, 6]: 888 nM
Structure (SMILES): CCOC(=O)/C=C/[C@H](CCC(N)=O)NC(=O)[C@H](Cc1ccccc1)n1cccc(NC(C)=O)c1=O [Compound 8, trans-(2′S,4S)-4-[2′-(3″-Acetylamino-2″-oxo-2″H-pyridin-1″-yl)-3′-phenypropionylamino]-6-carbamoylhex-2-enoic Acid Ethyl Ester]
- CC50 at 2 days [3]: > 10000 nM

- kinact/KI [1]: 193000 M⁻¹ s⁻¹
- EC50 [2, 6]: < 3.2 nM
Structure (SMILES): CCOC(=O)/C=C/[C@H](CCC(N)=O)NC(=O)[C@H](Cc1ccc(F)c(F)c1)n1cccc(NC(=O)OCc2ccccc2)c1=O [Compound 11, trans-(2′S,4S)-4-[2′-(3″-Benzyloxycarbonylamino-2″-oxo-2″H-pyridin-1″-yl)-3′-(3′″,4′″-difluorophenyl)propionylamino]-6-carbamoylhex-2-enoic Acid Ethyl Ester]
- CC50 at 2 days [3]: > 10000 nM

- kinact/KI [1]: 6500 M⁻¹ s⁻¹
- EC50 [2, 6]: 178 nM
Structure (SMILES): CCOC(=O)/C=C/[C@H](CCC(N)=O)NC(=O)[C@H](CC1CCCCC1)n1cccc(NC(=O)OCc2ccccc2)c1=O [Compound 15, trans-(2′S,4S)-4-[2′-(3″-Benzyloxycarbonylamino-2″-oxo-2″H-pyridin-1″-yl)-3′-cyclohexylpropionylamino]-6-carbamoyl-hex-2-enoic Acid Ethyl Ester]
- CC50 at 2 days [3]: > 10000 nM

- kinact/KI [1]: 4540 M⁻¹ s⁻¹
- EC50 [2, 6]: 9000 nM
Structure (SMILES): CCOC(=O)/C=C/[C@H](CCC(N)=O)NC(=O)[C@@H]1CCc2ccc(NC(=O)OCc3ccccc3)c(=O)n21 [Compound 36, trans-(3′S,4S)-4-[(6′-Benzyloxycarbonylamino-5′-oxo-1′,2′,3′,5′-tetrahydroindolizine-3′-carbonyl)amino]-6-carbamoylhex-2-enoic Acid Ethyl Ester]
- CC50 at 2 days [3]: > 100000 nM

- kinact/KI [1]: 600000 M⁻¹ s⁻¹
- EC50 [2, 6]: 15 nM
Structure (SMILES): Cc1cc(C(=O)Nc2cccn([C@@H](Cc3ccc(F)cc3)C(=O)N[C@H](/C=C3\CCOC3=O)C[C@@H]3CCNC3=O)c2=O)no1 [Compound 20, trans-(2″S,2″″S,3″″″S)-5-Methylisoxazole-3-carboxylic Acid (1′-{2″-(4′″-fluorophenyl)-1″-[2″″-(2′″″-oxodihydrofuran-3′″″-ylidene)-1″″-(2″″″oxopyrrolidin-3″″″-ylmethyl)ethylcarbamoyl]ethyl}-2′-oxo-1′,2′-dihydropyridin-3′-yl)amide]
- CC50 at 2 days [3]: > 10000 nM
